Results published in US20050142160A1, “ACTIVE ATTRACTANT COMPOSITION FOR INSECTS” (priority 2003, published 2005).

Legend:
[1] = system: houseflies (musca domestica); experiment: Test-room trap choice experiment, attractants compared with the standard (% of total flies caught); format: in vivo; conditions: for effect on the attractancy of the standard TMA/Z-9 when combined (in words): in combination with trimethylamine and Z-9-tricosene; for % Catch: Table 3, TMA/Z-9 and the combination; for attractiveness to flies (in words): attractant judged by itself or against a named alternative
Experimental: The trimethylamine (TMA) solution was prepared freshly for each experiment by dissolving a known amount of trimethylamine in a solution of sodium bicarbonate in water, to make 6 milliliters total volume. […] Additional attractants were placed in a third jar lid, or otherwise dispersed separately in the lower compartment of the test traps, for comparison against the standard. A testing room approximately 10 feet by 15 feet was furnished with folding tables on which to place the traps. In such a room was placed a total of six traps, two each of the control, the new attractant, and a combination of control+new attractant. Flies were raised from fly pupae, purchased from Beneficial […], California in a separate room under controlled conditions. For each experiment, after setting up the test traps, around 200 flies were introduced into the room for an 18-24 hour period, and observations were made periodically. At the end of each experiment, flies were counted in each trap, and the remaining flies not trapped were counted in order to account for all flies. In most cases, the remaining flies not caught had expired and were found on the floor of the testing suite. The data are reported for each trap as the percentage of the total flies caught, ignoring the flies not caught. It was observed that a percentage of the initially released flies were always weaker than the main population, and would quickly move toward the floor. Thus, only healthy, active flies were caught, since they were still foraging and seeking mating partners. The experiments were repeated daily, randomly rotating the relative positions of traps in the room with respect to their contents, such that positional effects in the room would be averaged out over many repetitions of the experiment. The results of each experiment, one per day, over one to two weeks, were totaled, and the total catch per attractant type were reported as percentage of catch (% catch).

flies = experiment: Comparison of muscalure against other fly attractants; format: in vivo; conditions: compared against other fly attractants; no method given

Compound | effect on the attractancy of the standard TMA/Z-9 when combined (in words) [1] | attractiveness to flies (in words) [1] | further results
CCCC(=O)O [butyric acid] | increases the attractiveness of the attractant combination |  | 
CCCCCCCC/C=C\CCCCCCCCCCCCC [muscalure, Z-9-tricosene] |  |  | attractiveness to flies (in words) (flies): weak fly attractant
C=CC(O)CCCCC (stereo not drawn) [Attractant 1-octen-3-ol, 1-octen-3-ol] | lowered the overall relative catch | non-attractive or repellent to flies | % Catch ([1]; choice between 1-octen-3-ol): 0%
CC(=O)O [Acetic Acid, Acetic acid] | no effect on the attractancy of TMA/Z-9 | weak attractant | % Catch ([1]; choice between acetic acid): 7%
Z-9-epoxytricosene [Attractant Z-9-Epoxy] |  | no more attractive than Z-9-tricosene | 
CCO [Ethanol] | no statistically significant effect on the attractancy of the standard | weak attractant | % Catch ([1]; choice between ethanol): 7%
